In patent publication US20240002470A1, “Method for separation and/or detection and/or in vitro quantification of infectious compounds in biological material” (priority 2020, published 2024):

Tests used:
[1] = tested on: ISAV virus (Infectious salmon anemia virus); test: Capture of ISAV virus on magnetic microbeads coated with pepβ2GPI, RT-PCR quantification; format: binding; conditions: for % compared to β2GPI: ISAV copies captured relative to β2GPI beads; for ISAV copies: virus captured on coated beads from culture supernatant
Text: The virus used is the ISAV virus (Infectious salmon anemia virus), responsible for anemia in salmon, originating from a culture supernatant.
The microbeads, intended to fix the virus, which are used are magnetic microbeads sold by the company MERCK under the name “Estapor® super-paramagnetic microspheres” which have a diameter between […].
(§1) The pepβ2GPI were grafted onto the microbeads according to the supplier's recommendations. In summary, the microbeads are suspended in phosphate buffer at a pH of 6.0. The beads are then activated, for 15 minutes, in the presence of 1-ethyl-3-(3-Dimethylaminopropyl) carbodiimide and N-hydroxysuccinimide. After washing with HCl, 2 mM, the beads are suspended in a phosphate buffer at a pH of 7.5, containing the pepβ2GPI. The concentration of pepβ2GPI in this coupling buffer is 20 mg/L; the microbeads are incubated in the buffer with gentle and constant shaking at a temperature of 25° C. for 3 hours. The microbeads are then centrifuged at 1,500 rpm and the supernatant is removed; the centrifugation pellet is suspended in the same buffer as that used for the coupling of pepβ2GPI, which forms the suspension of microbeads coated with pepβ2GPI which we want to test.
(§2) One hundred microliters of viral culture supernatant to be studied are placed in an Eppendorf tube with 900 microliters of Tris buffer at a pH of 7.5 and 10 microliters of microbeads. The tubes are shaken horizontally to mix the microbeads well, and each tube is incubated at 37° C. or at room temperature (RT=22° C.) for 30 minutes. In each tube, the microbeads are then separated from the liquid phase by means of a magnet, placed externally against the wall of the tube, and the viral RNA is extracted. The beads are brought into contact with a viral lysis buffer, included in an RNA extraction kit: QIAamp RNA viral kit, sold by QIAGEN and the viral RNA is isolated according to the seller's recommendations.
The RNA is then transcribed into complementary DNA, in the presence of reverse transcriptase, according to the following protocol:
Finally, the complementary DNA (cDNA) is amplified by chain reaction using a polymerase and quantified according to the following protocol: […]

[2] = tested on: IPN virus (Infectious pancreatic necrosis virus); test: Capture of IPN virus on magnetic microbeads coated with pepβ2GPI, RT-PCR quantification; format: binding; conditions: for % compared to β2GPI: IPN copies captured relative to β2GPI beads; for IPN Copies: virus captured on coated beads from culture supernatant
Procedure: as §1, §2
The virus used is the IPN virus (Infectious pancreatic necrosis virus), responsible for necrosis of the pancreas in salmon, originating from a culture supernatant. The same protocol as described in example 1 was carried out.

[3] = tested on: HCV virus (hepatitis C virus); test: Capture of HCV virus from patient plasma on magnetic microbeads coated with pepβ2GPI, RT-PCR quantification; format: binding; conditions: for % compared to β2GPI: HCV copies captured relative to β2GPI beads; for HCV/run copies: per run, virus captured on coated beads from plasma of patients
Procedure: as §1, §2
The virus used is the HCV virus (hepatitis C virus), present in the plasma of patients. The same protocol as described in example 1 was carried out.

E. coli B6054 [4] = test: Capture of E. coli B6054 on magnetic microbeads, culture on TS agar and counting; format: binding, Escherichia coli; conditions: E. coli B6054 colonies from captured beads
E. coli ATCC 8739 [5] = test: Capture of E. coli ATCC 8739 on magnetic microbeads, culture and counting; format: binding, Escherichia coli; conditions: E. coli ATCC 8739 colonies from captured beads
Procedure: (§3) One ml of the culture of bacteria to be studied is placed in a hemolysis tube. 100 μl of buffer are added, the trade name of which is TTGB, then 20 μl of microbeads. The tube is stirred horizontally, to mix the microbeads well, and incubated at 37° C. or at room temperature (TA=22° C.) for half an hour. At the end of the incubation, the microbeads are separated from the liquid phase by means of a magnet, placed externally against the wall of the tube. The microbeads are then washed twice with LB medium and then resuspended in 1 ml of BTS culture medium (Tripticase-Soy broth) having the following formulation: […]
(§4) This culture medium is brought to a boil and then autoclaved, to make it sterile, before use. 20 μl of the microbead suspension are taken and spread in a Petri dish containing TS agar (Trypticase-Soya agar) having the following formulation: […]
(§5) The Petri dishes are incubated at +37° C. for 24 hours. The bacteria that have grown on the agar are then counted.
The used bacteria were obtained from a collection strain of Escherichia coli (E. coli), ATCC 8739. The same experiment as that described in the previous example was carried out.

S. aureus, SA 378804 = test: Capture of S. aureus SA 378804 on magnetic microbeads, culture and counting; format: binding, Staphylococcus aureus; conditions: S. aureus SA 378804 colonies from captured beads
Procedure: as §3, §4, §5
The used bacterium is a strain of Staphylococcus aureus (S. aureus), SA 378804, isolated from the wound of the foot of a diabetic person, Sotto et al., Diabetes Care (2008) 31 (12), p. 2318-24. The same experiment as that described in the previous example was carried out.

[6] = tested on: HSV virus (Herpes Simplex virus); test: Capture of HSV virus on magnetic microbeads coated with pepβ2GPI; format: binding
Procedure: as §1, §2
(§6) The viruses tested are the HSV virus (Herpes Simplex virus) and the BVDV virus (Bovine viral Diarrhea Virus).
(§7) The same protocol as that described in example 1 was carried out.

[7] = tested on: BVDV virus (Bovine viral Diarrhea Virus); test: Capture of BVDV virus on magnetic microbeads coated with pepβ2GPI; format: binding
Procedure: as §1, §2, §6, §7

E. coli ATCC 11105 = test: Capture on magnetic microbeads coated with pepβ2GPI: C3 E. coli ATCC 11105; format: binding
Procedure: (§8) To test the interaction of microbeads coated with β2GPI and the peptides derived from them, with bacteria present in the blood, 1 ml of blood culture is taken from each sample and placed in a 15 ml tube. 20 μl of microbeads are added and each tube is incubated at 37° C. with horizontal shaking. The tubes are then placed in a magnetic field which retains the microbeads on the wall and the supernatant is removed. The microbeads are then washed twice with sterile PBS, of the same composition as previously indicated; the microbeads are then resuspended in 150 μl of BTS culture medium. Two methods for detecting bacteria captured by microbeads were used: culture on TS agar and PCR For the detection of the bacterial capture by culture, 50 μl of the suspension of microbeads thus obtained are taken and they are spread out in a Petri dish containing TS agar. Petri dishes are incubated in an oven at 37° C. for 24 hours. The bacteria that have grown on the agar were then counted.
(§9) The tested bacteria are: C3 E. coli ATCC 11105, C5 S. aureus ATCC 6538, H61 E. coli B6054, C1: E. coli ATCC 8739, H46: C. albicans 1 and H: 60 SCN
(§10) The same protocol and primers as those described in example 9 were carried out.

S. aureus ATCC 6538 = test: Capture on magnetic microbeads coated with pepβ2GPI: C5 S. aureus ATCC 6538; format: binding
Procedure: as §8, §9, §10

E. coli B6054 [8] = test: Capture on magnetic microbeads coated with pepβ2GPI: H61 E. coli B6054; format: binding
Procedure: as §8, §9, §10

E. coli = conditions: cited from earlier work
S. pyogenes = conditions: cited from earlier work
S. aureus = conditions: cited from earlier work
E. coli ATCC 8739 [9] = test: Capture on magnetic microbeads coated with pepβ2GPI: C1 E. coli ATCC 8739; format: binding
Procedure: as §8, §9, §10

C. albicans 1 = test: Capture on magnetic microbeads coated with pepβ2GPI: H46 C. albicans 1; format: binding
Procedure: as §8, §9, §10

SCN = test: Capture on magnetic microbeads coated with pepβ2GPI: H: 60 SCN; format: binding
Procedure: as §8, §9, §10

binding of β2GPI to LPS = target: T1, binding of β2GPI to LPS (Homo sapiens, UniProt P02749); conditions: cited from earlier work
T1 sequence (P02749 20-345): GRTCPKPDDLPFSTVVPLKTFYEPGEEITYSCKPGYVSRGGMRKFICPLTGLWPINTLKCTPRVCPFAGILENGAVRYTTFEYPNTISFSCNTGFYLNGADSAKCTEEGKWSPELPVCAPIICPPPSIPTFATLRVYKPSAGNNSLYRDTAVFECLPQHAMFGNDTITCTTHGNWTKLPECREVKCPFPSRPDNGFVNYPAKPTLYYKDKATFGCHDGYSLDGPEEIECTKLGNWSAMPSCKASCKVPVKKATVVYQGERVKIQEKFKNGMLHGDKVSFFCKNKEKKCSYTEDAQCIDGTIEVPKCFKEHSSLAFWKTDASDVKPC

CKNKEKKC [Peptide P2]
% compared to β2GPI [1]: (112%)
ISAV copies [1]: 62 700 copies
% compared to β2GPI [2]: (50%)
IPN Copies [2]: 6 copies
% compared to β2GPI [3]: (72%)
HCV/run copies [3]: 81 copies
% compared to β2GPI (E. coli B6054 [4]): 31%
% compared to β2GPI (E. coli ATCC 8739 [5]): 15%
% compared to β2GPI (S. aureus, SA 378804): 104%
Capture of HSV virus [6]: 97%
Capture of BVDV virus [7]: 181%
Capture of C3 E. coli ATCC 11105 (E. coli ATCC 11105): 30%
Capture of C5 S. aureus ATCC 6538 (S. aureus ATCC 6538): 80%
Capture of H61 E. coli B6054 (E. coli B6054 [8]): 104%

CKNKEKKC [Peptide P3]
% compared to β2GPI [1]: (117%)
ISAV copies [1]: 65 550 copies
Capture of BVDV virus [7]: 15%
Capture of C3 E. coli ATCC 11105 (E. coli ATCC 11105): 42%
Capture of C5 S. aureus ATCC 6538 (S. aureus ATCC 6538): 65%
Capture of H61 E. coli B6054 (E. coli B6054 [8]): 88%

CKNKEKKCGGSSLAFWK [Peptide P4]
% compared to β2GPI [1]: (110%)
ISAV copies [1]: 61 150 copies
% compared to β2GPI [2]: (100%)
IPN Copies [2]: 12 copies
% compared to β2GPI [3]: (73%)
HCV/run copies [3]: 83 copies
% compared to β2GPI (E. coli B6054 [4]): 44%
% compared to β2GPI (E. coli ATCC 8739 [5]): 18%
% compared to β2GPI (S. aureus, SA 378804): 79%
Capture of HSV virus [6]: 357%
Capture of BVDV virus [7]: 73%
Capture of C3 E. coli ATCC 11105 (E. coli ATCC 11105): 26%
Capture of C5 S. aureus ATCC 6538 (S. aureus ATCC 6538): 73%
Capture of H61 E. coli B6054 (E. coli B6054 [8]): 85%

CKNKEKKCS [CNK8]
bactericidal effect (E. coli): have a bactericidal effect
bactericidal effect (S. pyogenes): have a bactericidal effect
bactericidal effect (S. aureus): This effect is less

GDKVSFFCKNKEKKCS [GDK15]
bactericidal effect (E. coli): have a bactericidal effect
bactericidal effect (S. pyogenes): have a bactericidal effect
bactericidal effect (S. aureus): This effect is less

H-(SSLAFWK)2-K—NH2 [Peptide P10]
% compared to β2GPI [1]: (105%)
ISAV copies [1]: 58 400 copies
% compared to β2GPI [2]: (67%)
IPN Copies [2]: 8 copies
% compared to β2GPI [3]: (87%)
HCV/run copies [3]: 98 copies
% compared to β2GPI (E. coli B6054 [4]): 34%
% compared to β2GPI (E. coli ATCC 8739 [5]): 12%
Capture of HSV virus [6]: 119%
Capture of BVDV virus [7]: 208%
Capture of C3 E. coli ATCC 11105 (E. coli ATCC 11105): 45%
Capture of C5 S. aureus ATCC 6538 (S. aureus ATCC 6538): 66%
Capture of H61 E. coli B6054 (E. coli B6054 [8]): 79%
Capture of C1: E. coli ATCC 8739 (E. coli ATCC 8739 [9]): 6.17%
Capture of H46: C. albicans 1 (C. albicans 1): 97.9%
Capture of H: 60 SCN (SCN): 49.0%

LAFWKTDA
inhibiting the binding of β2GPI to LPS (binding of β2GPI to LPS): capable of inhibiting the binding of β2GPI to LPS

SSLAFWK [Peptide P1]
% compared to β2GPI [1]: (130%)
ISAV copies [1]: 72 300 copies
% compared to β2GPI [2]: (117%)
IPN Copies [2]: 14 copies
% compared to β2GPI [3]: (163%)
HCV/run copies [3]: 184 copies
% compared to β2GPI (E. coli B6054 [4]): 92%
% compared to β2GPI (E. coli ATCC 8739 [5]): 68%
% compared to β2GPI (S. aureus, SA 378804): 115%
Capture of BVDV virus [7]: 7%
Capture of C3 E. coli ATCC 11105 (E. coli ATCC 11105): 30%
Capture of C5 S. aureus ATCC 6538 (S. aureus ATCC 6538): 56%
Capture of H61 E. coli B6054 (E. coli B6054 [8]): 71%
